Experiments:
[1] = Levels of compound in brain and plasma by LC/MS/MS; type: in vivo, Han Wistar rats; details: rat; for Brain levels: average
Description: The animals were sacrificed on day 6 at 2 and 6 hours after dosing. Brain and plasma were taken at the sacrifice time. Blood was put in heparinised plastic tubes, kept in ice-water bath, and then centrifuged (10 minutes, 1200 g at 4° C.). Brain and plasma samples were stored in a freezer at −80° C. until analysis. The levels of compound of formula (I) were analysed by LC/MS/MS.

[2] = Radioactivity distribution in brain by autoradioluminography, plasma by LSC; type: in vivo, Sprague Dawley rats; details: 14C-labelled, single oral 20 mg/kg as maleate salt, rat
Description: Animals were sacrificed 2, 6 and 24 hours after administration (2 animals at each selected time) and the radioactivity distribution of compound-related material was evaluated in intact brain, after excision. The autoradioluminography method was used to evaluate the quantitative radioactivity distribution in the brain.
The radioactivity distribution was also evaluated in blood and plasma collected from the animals after sacrifice. The radioactivity levels in blood and plasma were determined by Liquid Scintillation Counting (LSC).

SF268 [3] = test: Inhibition of cell proliferation (cellular ATP monitoring); type: cell-based; details: Homo sapiens, SF-268; SF268, 72 hours
Description: (§1) SF-268, SF-295, SF-539 and U251 cell lines were cultured in RPMI 1640 added with 10% FCS and 2 mM glutamine and U-87MG cell line was cultured in EMEM added with 10% FCS, […] and 1% NEAA. For all the experiments cells were seeded at the density of 1×10^4/cm^2, the day after treatment with the compound for the prescribed duration and then collected at the reported times.
(§2) Cells were washed and counted 72 hours after the treatment. Cell proliferation was determined by a cellular adenosine triphosphate monitoring system. Cell proliferation was compared to control cells. The concentration inhibiting cell proliferation by 50% (IC50) was calculated.

SF295 [4] = test: as above; type: cell-based; details: Homo sapiens, SF-295; SF295, 72 hours
Description: as §1, §2

SF539 [5] = test: as above; type: cell-based; details: Homo sapiens, SF-539; SF539, 72 hours
Description: as §1, §2

U251 [6] = test: as above; type: cell-based; details: Homo sapiens, U-251; U251, 72 hours
Description: as §1, §2

U87MG [7] = test: as above; type: cell-based; details: Homo sapiens, U-87 MG, 72 hours
Description: as §1, §2

U251 [8] = test: Analysis of BrdU incorporation (FACS); type: cell-based, human; details: U251, 24 hour-treatment
Description: as §1
(§3) BrdU (5-bromo-2′ deoxyuridine) was added to the cell culture at the final concentration of 30 μM for the last hour of a 24 hour-treatment. Cells were washed with PBS, fixed in 70% ethanol and stored at −20° C. At the moment of the analysis cells were centrifuged, washed with 1% FCS in PBS and DNA denaturated with HCl 2N for 20 minutes. After a wash in Na2B4O7 0.1M pH 8.5, cells were incubated with a solution of 0.5% Tween20 in PBS+1% FCS for 15 minutes and then centrifuged. The pellets were resuspended in 150 μl of a 1:10 diluted unconjugated anti-BrdU monoclonal antibody (Becton Dickinson) and incubated for 1 hour at room temperature. After a wash in PBS, the incubation with 0.5% Tween20 was repeated; then the secondary antibody was added (1:50 diluted FITC-conjugated goat anti mouse immunoglobulin (Jackson Lab.)). After one hour at room temperature the cells were rinsed again, counterstained with propidium iodide (2 μg/ml+12.5 μg/ml DNAse-free RNAse) overnight, then analyzed by FACS.

SF268 [9] = test: Analysis of BrdU incorporation (FACS); type: cell-based; details: SF268, 24 hour-treatment
Description: as §1, §3

SF295 [10] = test: Analysis of BrdU incorporation (FACS); type: cell-based; details: SF295, 24 hour-treatment
Description: as §1, §3

SF539 [11] = test: Analysis of BrdU incorporation (FACS); type: cell-based; details: SF539, 24 hour-treatment
Description: as §1, §3

U87MG [12] = test: Analysis of BrdU incorporation (FACS); type: cell-based; details: 24 hour-treatment
Description: as §1, §3

U251 [13] = test: Acridine orange staining to evaluate autophagy (FACS); type: cell-based, human; details: U251, 3 μM
Description: as §1
(§4) During the last 15 minutes of incubation, acridine orange (1 μg/ml) was added to the cells that were then collected, washed with PBS and analyzed by FACS for their fluorescence emission. Acridine orange moves freely to cross biological membranes but, when in the cytoplasm and nucleolus, fluoresces bright green and dim red; in the acidic vacuoles generated by autophagy appears bright red.

SF268 [14] = test: as above; type: cell-based; details: SF268, 3 μM
Description: as §1, §4

SF295 [15] = test: as above; type: cell-based; details: SF295, 3 μM
Description: as §1, §4

SF539 [16] = test: as above; type: cell-based; details: SF539, 6 μM
Description: as §1, §4

U87MG [17] = test: as above; type: cell-based; details: 3 μM
Description: as §1, §4

[18] = system: all the tested glioma cells; test: Inhibition of cell proliferation, summary over cell lines; type: cell-based; details: 72 hours, read-out: IC50 (inhibit proliferation), range over cell lines
Description: as §1, §2

[19] = system: all the tested glioma cells; test: Acridine orange staining to evaluate autophagy, summary over cell lines; type: cell-based
Description: as §1, §4

U251 cells [20] = test: Mode of action by Western blot analysis; type: cell-based, human; details: U251 cells treated for 24 hours, 1 and 3 μM, FIG. 1
Description: (§5) Treated cells were lysed by adding SDS sample buffer (0.125M Tris-HCl pH6.8, 5% SDS). Samples were heated to 95° C. for 5 minutes and then sonicated using an Ultrasonic 2000 ARTEK. Lysed cells were centrifuged at 13,000 RPM for 10 minutes. Protein quantification was determined using BCA buffer (Pierce) and a BSA standard curve. 20 μg protein extract per well were loaded and separated by SDS-PAGE gel 7.5-10% (PAGE-PLUS 40% concentrate AMRESCO). The gel was blotted onto nitrocellulose filters (Hybond Amersham) in a buffer containing 25 mM Tris HCl pH 8.3, 192 mM Glycine and 20% methanol. The filters were saturated in 5% low-fat milk in TBS containing 0.1% Tween 20 (TBS-T) for 2 hours at room temperature and than incubated overnight at 4° C. with the primary monoclonal followed by washes in TBS-T and incubation using a secondary anti mouse antibody. The bands were visualized using the “Super Signal West Pico” Pierce.

SF-539 cells = test: Mode of action by Western blot analysis; type: cell-based; details: SF-539 cells treated for 6 hours, 3 μM, FIG. 2
Description: as §5

all glioma cell lines = test: Mode of action by Western blot analysis; type: cell-based; details: independently from the status of Rb pathway
Description: as §5

U251 human glioma cells = type: in vivo
Description: Balb, Nu/Nu male mice, from Harlan (Italy), were maintained in cages with paper filter cover, food and bedding sterilized and water acidified. 2.5×10^6 U251 human glioma cells (from the American Type Culture Collection) were injected subcutaneously in athymic mice. […] Tumor growth and body weight were measured every 3 days. Tumor growth was assessed by caliper. The two diameters were recorded and the tumor weight was calculated according the following formula: length (mm)×width^2/2. Toxicity was evaluated on the basis of body weight reduction.

U251 cells [21] = test: Efficacy on intracranially implanted glioma tumor model; type: in vivo, Athymic male nude mice; details: 40 mg/kg bid OS, FIG. 3
Description: Animals that underwent surgical procedures were anesthetized following one of the above mentioned protocols, i.e. Ketamin, 80-100 mg/kg i.p.+Xilazin: 10 mg/kg i.p.; Isofluorane: 1.5-2%. Athymic male nude mice, aged 6-8 weeks were anesthetized, placed under the stereotaxic apparatus and gently fixed with ear bars and into the head holder. Skin of the head was cut longitudinally (parallel to ears) and skull of the mouse discovered. With the X and Y axis controller of the apparatus, bregma (interception between median sagittal and anterior coronal sutures to perform injection into the cerebral nuclei) and lambda (interception between median sagittal suture and posterior coronal suture to perform injection into the cerebellum) were identified as point 0. The following coordinates were set in the apparatus and the point of injection identified. With a microdrill a small hole was done in the desired point. Cells were aspirated with the Hamilton syringe (usually […]) just prior injection (a short mix of cells before aspiration was performed to avoid precipitation of cells). By pointing to the hole, Z axis was fixed to 0 and syringe gently inserted into the brain until reaching the right coordinate (−3.0 mm depth). U251 cells were injected at the speed of 1 μl per minute. […] After the end of the surgery mice were monitored for recovery until complete wakening.

CNC(=O)c1nn(C)c2c1C(C)(C)Cc1cnc(Nc3ccc(N4CCN(C)CC4)cc3)nc1-2 [compound of formula (I), 8-[4-(4-methyl-piperazin-1-yl)-phenylamino]-1,4,4-trimethyl-4,5-dihydro-1H-pyrazolo[4,3-h]quinazoline-3-carboxylic acid methylamide]
Kp ([1]; Han Wistar, brain/plasma, oral 60 mg/kg for 6 days, assuming a density equal to 1, read-out: brain levels times higher than plasma levels): 6.1 to 9.6
concentration at 2 h ([1]; Han Wistar, plasma, oral 60 mg/kg for 6 consecutive days, day 6, 2 hours post-dosing): 9.8 µM
concentration at 6 h ([1]; Han Wistar, plasma, oral 60 mg/kg for 6 consecutive days, day 6, 6 hours post-dosing): 8.4 µM
Brain levels ([1]; oral 60 mg/kg for 6 consecutive days, day 6, 2 hours post-dosing): 88.9 nmoles/gr of tissue
Brain levels ([1]; oral 60 mg/kg for 6 consecutive days, day 6, 6 hours post-dosing): 69.4 nmoles/gr of tissue
Brain (total radioactivity) ([2]; 2 h): 4.6 μg eq/g
Cerebellum (total radioactivity) ([2]; 2 h): 4.4 μg eq/g
Plasma (total radioactivity) ([2]; 2 h): 1.43 μg eq/g
Brain (total radioactivity) ([2]; 6 h): 1.4 μg eq/g
Cerebellum (total radioactivity) ([2]; 6 h): 1.5 μg eq/g
Plasma (total radioactivity) ([2]; 6 h): 0.89 μg eq/g
Brain (total radioactivity) ([2]; 24 h): 0.4 μg eq/g
Cerebellum (total radioactivity) ([2]; 24 h): 0.4 μg eq/g
Plasma (total radioactivity) ([2]; 24 h): 0.14 μg eq/g
IC50 (SF268 [3]): 2500 nM
IC50 (SF295 [4]): 5400 nM
IC50 (SF539 [5]): 1400 nM
IC50 (U251 [6]): 2800 nM
IC50 (U87MG [7]): 1600 nM
% BrdU inhib (U251 [8]): 74%
% BrdU inhib (SF268 [9]): 78%
% BrdU inhib (SF295 [10]): 74%
% BrdU inhib (SF539 [11]): 39%
% BrdU inhib (U87MG [12]): 92%
Autophagy % (U251 [13]): 58 (3 μM) %
Autophagy % (SF268 [14]): 70 (3 μM) %
Autophagy % (SF295 [15]): 68 (3 μM) %
Autophagy % (SF539 [16]): 35 (6 μM) %
Autophagy % (U87MG [17]): 50 (3 μM) %
IC50 [18]: 1400 to 5400 nM
induce autophagy, % of the cells, range over cell lines [19]: 36-70%
Rb phosphorylation (U251 cells [20]): strong inhibition
cdc6 expression (U251 cells [20]): strong inhibition
cyclin A expression (U251 cells [20]): strong inhibition
cyclin B1 expression (U251 cells [20]): strong inhibition
phosphorylation of TRKA receptor (SF-539 cells): Inhibition
phosphorylation of downstream proteins, both in the MAPK and in AKT pathway (SF-539 cells): Inhibition
cell cycle related markers (all glioma cell lines): decrease
Max tumor growth inhibition (%) (U251 human glioma cells; U251 subcutaneous xenograft, oral 40 mg/kg BID for 10 consecutive days): 80%
Toxicity (U251 human glioma cells; male, Balb Nu/Nu, mouse, in vivo, po, 40 mg/kg, 10 days): 0/8
increase in the survival time in comparison to vehicle-treated control mice (U251 cells [21]): 30%
